In paper PMC5920688 (Journal of veterinary pharmacology and therapeutics, 2017):
Entries after “also recorded” stand apart in the source; their conditions may differ. Each block holds one compound with its values, some of them ahead of it.

Columns and labels:
horses [1] = settings: 4 mg/kg i.v., ref Toutain et al., 1994; cited from earlier work
horses [2] = settings: clinical cases, ref Johnson et al., 1993, Raekallio et al., 1997; cited from earlier work
[3] = Plasma pharmacokinetics of t-TUCB after intravenous administration; type: in vivo, horses; settings: for AUClast (h*ng/mL)/dose: dose-corrected; for AUClast (h*ng/mL)/dose / Clast (last measured plasma concentration) / Tlast (time of last measured plasma concentration) / λz lower / λz upper: mean ± SEM; for Plasma kinetics (order): preliminary
[4] = Synovial fluid t-TUCB concentrations after intravenous administration; type: in vivo; settings: horses, i.v., 1 mg/kg
[5] = tested on: horses with lipopolysaccharide-induced radiocarpal synovitis; test: Pain; type: in vivo; settings: for Horses qualifying for rescue analgesia if only VAS > 50 at rest had been used: control 5/6; for Proportion of positive-to-negative responses to touch (tactile allodynia): control 1.7; for AUC of AAEP lameness scores compared to control / AUC of visual analog pain scores compared to control: first 12 h and entire 48 h
[6] = tested on: horses with lipopolysaccharide-induced radiocarpal synovitis; type: in vivo
horses [7] = test: Physical exam variables, hematology and serum biochemistry; type: in vivo
[8] = tested on: equine soluble epoxide hydrolase (sEH); settings: ref Guedes et al., 2016, cited from earlier work
rats = settings: doses as low as 0.1 mg/kg, ref Wagner et al., 2013; cited from earlier work
[9] = Thoroughbred, Quarter Horse, Dutch Warmblood (mixed group), plasma, iv, 1 mg/kg
[10] = Thoroughbred, Quarter Horse, Dutch Warmblood, plasma, iv, 0.1 mg/kg
[11] = Thoroughbred, Quarter Horse, Dutch Warmblood, plasma, iv, 0.3 mg/kg
[12] = horses, i.v., 0.1 mg/kg, plasma
[13] = horses, i.v., 0.3 mg/kg, plasma

SMILES: CCCCC1C(=O)N(c2ccccc2)N(c2ccccc2)C1=O [phenylbutazone]
Analgesic effects in carpal Freund's adjuvant arthritis model (horses [1]): not readily demonstrated; also recorded: could not be demonstrated | Duration of post-surgical analgesia (horses [2]): < 12 h

Vd [3, 9]: 0.571 ± 0.104 L/kg | clearance [3, 9]: 0.233 mL/min/kg | half-life [3, 9]: 24 ± 5 h | AUC(0-inf) [3, 10]: 2000 ± 530 ng·h/mL | AUC(0-t) [3, 10]: 1610 ± 360 ng·h/mL | AUC(0-inf) [3, 11]: 6370 ± 526 ng·h/mL | AUC(0-t) [3, 11]: 5840 ± 488 ng·h/mL | AUC(0-t) ([3]; Thoroughbred, Quarter Horse, Dutch Warmblood, plasma, iv, 1 mg/kg): 50100 ± 5600 ng·h/mL | AUClast (h*ng/mL)/dose ([3]; horses, i.v., 0.1 mg/kg): 16066±3595^a h*ng/mL | AUClast (h*ng/mL)/dose ([3]; horses, i.v., 0.3 mg/kg): 19467±1625^a h*ng/mL | AUClast (h*ng/mL)/dose ([3]; horses, i.v., 1 mg/kg): 50139±5604^b h*ng/mL | Plasma concentrations ([3]; horses, i.v., 0.03 mg/kg): undetectable or very low | Clast (last measured plasma concentration) [3, 12]: 17 ± 5 ng/mL | Tlast (time of last measured plasma concentration) [3, 12]: 38 ± 5 h | λz lower [3, 12]: 8 ± 4 h | λz upper [3, 12]: 38 ± 5 h | Clast (last measured plasma concentration) [3, 13]: 29 ± 3 ng/mL | Tlast (time of last measured plasma concentration) [3, 13]: 48 ± 0 h | λz lower [3, 13]: 11 ± 5 h | λz upper [3, 13]: 48 ± 0 h | Clast (last measured plasma concentration) ([3]; horses, i.v., 1 mg/kg, plasma): 538 ± 76 ng/mL | Tlast (time of last measured plasma concentration) ([3]; horses, i.v., 1 mg/kg, plasma): 48 ± 0 h | λz lower ([3]; horses, i.v., 1 mg/kg, plasma): 14 ± 5 h | λz upper ([3]; horses, i.v., 1 mg/kg, plasma): 48 ± 0 h | Plasma kinetics (order) ([3]; horses, i.v., 0.1 and 0.3 mg/kg): linear or first order plasma kinetics | clearance ([3]; plasma, iv, 0.1 mg/kg): 1.13 mL/min/kg | clearance ([3]; plasma, iv, 0.3 mg/kg): 0.8 mL/min/kg | AUC(0-inf) ([3]; plasma, iv, 1 mg/kg): 71100 ± 5780 ng·h/mL | clearance ([3]; plasma, iv, 1 mg/kg): 0.233 mL/min/kg | half-life ([3]; plasma, iv, 1 mg/kg): 24 ± 5 h | Synovial fluid concentrations reached [4]: high concentrations | Synovial fluid t-TUCB concentration, inflamed compared to non-inflamed joint [4]: significantly higher
SMILES: O=C(Nc1ccc(OC(F)(F)F)cc1)N[C@H]1CC[C@H](Oc2ccc(C(=O)O)cc2)CC1 [t-TUCB, trans-4-{4-[3-(4-Trifluoromethoxy-phenyl)-ureido]-cyclohexyloxy}-benzoic acid]
Plasma kinetics (order) ([3]; horses, i.v., highest dose (1 mg/kg)): may have approached a non-linear or zero order kinetics | Horses qualifying for rescue analgesia if only VAS > 50 at rest had been used ([5]; 0.03 mg/kg i.v.): 5/6 | Proportion of positive-to-negative responses to touch (tactile allodynia) ([5]; 0.1 mg/kg i.v.): 0.8 | Horses qualifying for rescue analgesia if only VAS > 50 at rest had been used ([5]; 0.1 mg/kg i.v.): 4/6 | Proportion of positive-to-negative responses to touch (tactile allodynia) ([5]; 0.3 mg/kg i.v.): 1.3 | Horses qualifying for rescue analgesia if only VAS > 50 at rest had been used ([5]; 0.3 mg/kg i.v.): 1/4 | Proportion of positive-to-negative responses to touch (tactile allodynia) ([5]; 1 mg/kg i.v.): 0.2 | Horses qualifying for rescue analgesia if only VAS > 50 at rest had been used ([5]; 1 mg/kg i.v.): 2/5 | AUC of AAEP lameness scores compared to control ([5]; 1 mg/kg i.v.): significantly lower | AUC of visual analog pain scores compared to control ([5]; 1 mg/kg i.v.): significantly lower | AUC of AAEP lameness scores compared to control ([5]; 0.1 and 0.3 mg/kg i.v.): not the others | AUC of visual analog pain scores compared to control ([5]; 0.1 and 0.3 mg/kg i.v.): not the others | Carpus circumference compared to control ([6]; 1 mg/kg i.v., at 36 h): reaching statistical significance | Anti-inflammatory activity (inflammatory cell numbers, joint effusion, protein concentration) ([6]; 0.1-1 mg/kg i.v.): no important anti-inflammatory effects; also recorded: negligible anti-inflammatory activity | Carpus circumference compared to the remaining treatments ([6]; 0.3 and 1 mg/kg i.v.): increased slightly less | Adverse effects on physical and laboratory examinations (horses [7]; 0.03-1 mg/kg i.v.): No adverse effects were observed | Effect of treatment on respiratory rate, heart rate and mean arterial pressure (horses [7]; 0.1, 0.3 and 1 mg/kg i.v., after LPS): not of treatment | Hematology and serum biochemistry results (horses [7]; all treatments (0.03-1 mg/kg i.v.)): within the normal laboratory reference range | In vitro 95% inhibitory concentration (IC95) ([8]; equine sEH): 0.0964 µg/mL | Potency against equine sEH compared to rat sEH ([8]; in vitro, Wagner et al., 2013): approximately 3 fold | Mechanical hyperalgesia to intra-plantar LPS (rats): significantly attenuated
